The target in assay [1] is T1, CB1 receptor (Homo sapiens, UniProt P21554). Put plainly: cell-based. Also on record: host or cells: PathHunter cell lines.
The target in assay [2] is T2, CB2 receptor (Homo sapiens, UniProt P34972). Put plainly: cell-based. Further details: host or cells: cAMP Hunter cell lines. The method, boiled down:
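PathHunter β-Arrestin enzyme fragment complementation cells, EA-tagged β-Arrestin and PK-tagged receptor, exposed to compound for 90 to 180 minutes at 37° C. or room temperature, 1% vehicle. Chemiluminescence read 1 h after detection reagent; agonist % activity relative to vehicle and MAX control ligand.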

The target of assay [3] is T1, CB1 receptor. Put plainly: cAMP Assay #1: CB1 adenylylcyclase assay in CHO cells. Type of assay: cell-based. Further details: expressed in transfected cells; host or cells: CHO cells. On the procedure: (§1) Compounds of the invention were assayed in an adenylylcyclase assay to determine agonist activity on the CB1 and CB2 receptors, the results of which are provided in Table 4. Exemplary methods for the adenylylcyclase assay can be found in the literature, for example, in Rhee, M-H., et al. Cannabinol Derivatives: Binding to Cannabinoid Receptors and Inhibition of Adenylylcyclase. J Med Chem. 40: 3228-3233 (1997).
CB1 Activity as determined by Adenylylcyclase Assay: CB1 receptor agonist activity was measured by measuring cAMP production. A compound of the invention was incubated with CHO cells expressing human recombinant CB1 for 20 minutes at 37° C.
(§2) Determination of EC50 values: The EC50 values (concentration producing a half-maximal response) were determined by non-linear regression analysis of the concentration-response curves generated with mean replicate values using Hill equation curve fitting: Y=D+[(A−D)/(1+(C/C50)^nH)], where Y=response, A=left asymptote of the curve, D=right asymptote of the curve, C=compound concentration, and C50=EC50, and nH=slope factor. This analysis was performed using software developed at Cerep (Hill software) and validated by comparison with data generated by the commercial software SigmaPlot® 4.0 for Windows® (© 1997 by SPSS Inc.).

Assay [4] addresses T2, CB2 receptor. Put plainly: cAMP Assay #1: CB2 adenylylcyclase assay in CHO cells. Further details: expressed in transfected cells; host or cells: CHO cells. Type of assay: cell-based. On the procedure: as §1
CB2 Activity as determined by Adenylylcyclase Assay: CB2 receptor agonist activity was measured by measuring cAMP production. A compound of the invention was incubated with CHO cells expressing human recombinant CB2 for 10 minutes at 37° C.
as §2

Assay [5] deals with T1, CB1 receptor. Put plainly: CB1 competitive radioligand binding assay ([3H] SR141716A). Also on record: expressed in transfected cells; host or cells: Chem-1 cells. The note with it: for inhibition at 0.5 µM: 0.5 μM compound, 2.0 nM [3H] SR141716A, 90 min 37° C. The method, boiled down: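 Chem-1 cells expressing human recombinant CB1 incubated 90 min at 37° C with 2.0 nM [3H]SR141716A and compound at 0.5 μM (1% DMSO) in HEPES pH 7.4 buffer with MgCl2, CaCl2, 0.2% BSA. Read-out is % inhibition of radioligand binding.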

Assay [6] has as its target T2, CB2 receptor. Nature of the assay: CB2 competitive radioligand binding assay ([3H] WIN-55,212-2). Also on record: expressed in transfected cells; host or cells: CHO-K1 cells. Conditions: for inhibition at 0.05 µM: 0.05 μM compound, 2.4 nM [3H] WIN-55,212-2, 90 min 37° C.; for Fold Selectivity (CB1/CB2): Table 2, ratio of Ki CB1/CB2. The method, boiled down:
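Single-concentration displacement: 2.4 nM [3H]WIN-55,212-2 competed with 0.05 μM compound (1% DMSO) for 90 min at 37 °C on human CB2 expressed in CHO-K1 cells (HEPES 20 mM, pH 7.0, 0.5% BSA). Result given as % inhibition of bound radioligand.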

Assay [7] has as its target T1, CB1 receptor. Nature of the assay: cAMP Assay #2: Hit Hunter cAMP assay, Gi-coupled agonist activity, CB1. Type of assay: cell-based. Also on record: host or cells: PathHunter cell lines. How it is done:
(§3) Compounds of the invention were assayed in the Hit Hunter® cAMP assay to determine Gi-coupled agonist activity on the CB1 and CB2 receptors, the results of which are provided in Table 5.
(§4) The Hit Hunter® cAMP assay monitors the activation of a GPCR via Gi and […] secondary messenger signaling in a homogenous, non-imaging assay format using a technology developed by DiscoverX called Enzyme Fragment Complementation (EFC) with β-galactosidase (β-Gal) as the functional reporter. […] ED is fused to cAMP and in the assay competes with cAMP generated by cells for binding to a cAMP-specific antibody. Active β-Gal is formed by complementation of exogenous EA to any unbound ED cAMP. Active enzymes can then convert a chemiluminescent substrate, generating an output signal detectable on a standard microplate reader.
(§5) cAMP Hunter cell lines were expanded from freezer stocks according to standard procedures. Cells were seeded in a total volume of 20 μL into white walled, 384-well microplates and incubated at 37° C. for the appropriate time prior to testing. cAMP modulation was determined using the DiscoverX Hit Hunter cAMP XS+ assay. For Gi agonist activity determination, cells were incubated with sample in the presence of EC80 forskolin to induce response (20 μM and 25 μM in the CB1 and CB2 assays, respectively). Media was aspirated from cells and replaced with 15 μL 2:1 HBSS/10 mM HEPES:cAMP XS+Ab reagent.
(§6) Intermediate dilution of sample stocks was performed to generate 4× sample in assay buffer. 5 μL of 4× compound was added to cells and incubated at 37° C. or room temperature for 30 or 60 minutes. Final vehicle concentration was 1%. Assay signal was generated through incubation with 20 μL cAMP XS+ED/CL lysis cocktail for one hour at room temperature. Microplates were read following signal generation with a PerkinElmer Envision™ instrument for chemiluminescent signal detection. Compound activity was analyzed using CBIS data analysis suite (Chem Innovation, CA). For agonist assays, percentage activity was calculated using the following formula: % Activity=100%×(1−(mean RLU of test sample−mean RLU of Max control ligand)/(mean RLU of vehicle control−mean RLU of Max control ligand). Control ligand was the non-selective CB1/CB2 agonist CP55,940.
For orientation: Changes in cAMP serve as a functional read-out for many G protein-coupled receptors.

For assay [8], the target named is T2, CB2 receptor. Put plainly: cAMP Assay #2: Hit Hunter cAMP assay, Gi-coupled agonist activity, CB2. Type of assay: cell-based. Further details: host or cells: cAMP Hunter cell lines. Conditions: for CB2 fold selectivity: Hit Hunter cAMP, CB1 EC50 / CB2 EC50. How it is done: as §3, §4, §5, §6
The next assay deals with LPS-induced PBMCs. Put plainly: Inflammatory cytokine release from LPS-induced PBMCs (Luminex). Conditions: fold change from LPS-treated PBMCs, compounds 10 μM (DEX 1 μg/ml) 2 h, then LPS 0.1 μg/ml 24 h, negative = reduced. Type of assay: cell-based, human. How it is done:
Compounds of the invention were assayed for their effect on inflammatory cytokine release from lipopolysaccharides (LPS)-induced PBMCs, isolated from a human blood sample, the results of which are provided in Table 7 as fold change. Exemplary methods for quantifying secretion of inflammatory cytokines in PBMCs are known in the art, for example, as described in Hailer et al., Infection and Immunity. 68(2):752-759 (2000); and Merlini et al., Frontiers in Immunology. 7:614 (2016); each of which is incorporated herein by reference with respect to methods for evaluating cytokine release in PBMCs.
In brief, human blood samples from healthy volunteers were collected and PBMCs were isolated. PBMCs were cultured and each compound was assayed in triplicate at a final concentration of 10 μM for 2 hours. 1 μg/ml dexamethasone (DEX) served as a positive control. LPS was added at a final concentration of 0.1 μg/ml and further incubated for 24 hours. At the end of the incubation, the supernatants were collected and the levels of a panel of secreted cytokines were measured by a Human Magnetic Luminex® assay (R&D). The results in Table 7 are presented as a fold change from LPS-treated PBMCs. Reduced levels are expressed by negative values. OOR denotes values that are out of the standard curve range for the specific cytokine and thus, could not be accurately measured. Cytotoxicity was also determined. Compounds with cytotoxicity ≥50% was considered cytotoxic. Baseline cytotoxicity of untreated PBMCs was 17% and all compounds presented in Table 7 induced cytotoxicity below 25%.

Where [9] appears, read: PathHunter agonist mode, read-out: CB2 Activity (β-Arrestin).
[10] abbreviates: PathHunter agonist mode, read-out: CB1 Activity (β-Arrestin).
The mark [11] stands for this setting: OOR = out of standard curve range.

Some results are limits rather than exact numbers.

Results on 5 compounds are retold here after patent publication US20210284621A1 (priority 2018, published 2021).

T2 sequence (P34972 whole entry, the tested form may be a part): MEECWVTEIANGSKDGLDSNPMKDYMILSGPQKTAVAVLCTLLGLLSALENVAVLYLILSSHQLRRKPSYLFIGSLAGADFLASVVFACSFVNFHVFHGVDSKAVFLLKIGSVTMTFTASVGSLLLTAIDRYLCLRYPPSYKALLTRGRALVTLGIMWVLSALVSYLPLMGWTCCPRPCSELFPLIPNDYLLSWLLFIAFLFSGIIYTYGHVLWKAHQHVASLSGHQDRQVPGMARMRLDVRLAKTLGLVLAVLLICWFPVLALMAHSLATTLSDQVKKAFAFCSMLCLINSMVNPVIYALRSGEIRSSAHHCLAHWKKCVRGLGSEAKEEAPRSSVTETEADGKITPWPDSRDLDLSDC
T1 sequence (P21554 whole entry): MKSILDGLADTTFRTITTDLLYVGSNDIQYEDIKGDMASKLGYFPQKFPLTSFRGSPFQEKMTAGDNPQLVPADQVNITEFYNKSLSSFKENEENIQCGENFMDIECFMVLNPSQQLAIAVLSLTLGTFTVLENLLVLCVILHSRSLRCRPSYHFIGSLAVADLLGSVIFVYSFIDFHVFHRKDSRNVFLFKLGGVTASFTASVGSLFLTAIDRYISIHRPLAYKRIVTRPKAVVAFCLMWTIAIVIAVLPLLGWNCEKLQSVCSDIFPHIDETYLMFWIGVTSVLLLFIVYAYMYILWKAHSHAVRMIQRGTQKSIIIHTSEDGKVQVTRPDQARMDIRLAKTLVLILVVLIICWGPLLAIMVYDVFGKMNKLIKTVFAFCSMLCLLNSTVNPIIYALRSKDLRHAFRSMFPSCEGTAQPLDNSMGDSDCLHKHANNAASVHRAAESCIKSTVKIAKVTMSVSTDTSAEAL

For orientation: Ki means a dissociation constant, usually derived from enzyme kinetics or from competition with a known ligand. High values mean lower affinity, low ones higher affinity. The term inhibition denotes the change of the read-out against control, counted positive when it falls. A higher inhibition goes with a strong effect. Consider `CCCCCCC(C)(C)c1cc(O)c2c(c1)OC(C)(C)[C@@H]1CC=C(C(=O)OC)C[C@@H]21` [Compound 28, Methyl (6aR,10aR)-1-hydroxy-6,6-dimethyl-3-(2-methyloctan-2-yl)-6a,7,10,10a-tetrahydro-6H-benzo[c]chromene-9-carboxylate], for which the EC50 worked out at 654 nM at CB1 receptor [1], 1.7 nM on CB2 receptor [2] (setting [9]), 8.2 nM at CB1 receptor [3] and 59 nM on CB2 receptor [4]. For the same compound, the Ki on CB1 receptor [5] was 699 nM; at CB2 receptor [6] it was 32 nM. This compound came in with an inhibition at 0.5 µM at CB1 receptor [5] of 74%. This compound also came in with an inhibition at 0.05 µM on CB2 receptor [6] of 77%. Besides, on CB2 receptor [6], the “Fold Selectivity (CB1/CB2)” value came out at 22.
For the compound `CCCCCCC(C)(C)c1cc(O)c2c(c1)OC(C)(C)[C@@H]1CC=C(C(=O)NCCO)C[C@@H]21` [Compound 5, (6aR,10aR)-1-Hydroxy-N-(2-hydroxyethyl)-6,6-dimethyl-3-(2-methyloctan-2-yl)-6a,7,10,10a-tetrahydro-6H-benzo[c]chromene-9-carboxamide], the EC50 is 32.2 nM on CB1 receptor [7]; 620 nM on CB1 receptor [1] (setting [10]); 3.9 nM on CB2 receptor [8]; 520 nM on CB2 receptor [2] (setting [9]); under 3 nM on CB1 receptor [3]; 3.3 nM on CB2 receptor [4]. The compound further had a CB2 fold selectivity on CB2 receptor [8] of 8.2. Moreover, the Ki on CB1 receptor [5] came out at 350 nM; on CB2 receptor [6], 28 nM. At CB1 receptor [5], testing at 0.5 µM gave an inhibition of 49%. The compound also displayed an inhibition at 0.05 µM at CB2 receptor [6] of 57%. For the same compound, on CB2 receptor [6], the “Fold Selectivity (CB1/CB2)” value is 12.6.
As for `CCCCCCC(C)(C)c1cc(OC)c2c(c1)OC(C)(C)[C@@H]1CC=C(C(=O)O)C[C@@H]21` [Compound 34, (6aR,10aR)-1-methoxy-6,6-dimethyl-3-(2-methyloctan-2-yl)-6a,7,10,10a-tetrahydro-6H-benzo[c]chromene-9-carboxylic acid], the EC50 on CB1 receptor [1] is over 3000 nM; at CB2 receptor [2] (setting [9]) it was over 3000 nM; on CB1 receptor [3], over 300 nM; at CB2 receptor [4], over 300 nM. The inhibition constant (Ki) at CB1 receptor [5] and at CB2 receptor [6] was over 3000 nM each time.
Turning to `CC(C)(c1ccccc1)c1cc(O)c2c(c1)OC(C)(C)[C@@H]1CC=C(C(=O)O)C[C@@H]21` [Compound 35, (6aR,10aR)-1-Hydroxy-6,6-dimethyl-3-(2-phenylpropan-2-yl)-6a,7,10,10a-tetrahydro-6H-benzo[c]chromene-9-carboxylic acid], the EC50 at CB1 receptor [1] (setting [10]) was over 3000 nM; on CB2 receptor [2] (setting [9]) it was over 3000 nM; at CB1 receptor [3] it was over 300 nM; at CB2 receptor [4], over 300 nM. Moreover, the inhibition constant (Ki) at CB1 receptor [5] and at CB2 receptor [6] was over 3000 nM in each case.
For the compound `CCCC(C)(C)c1cc(O)c2c(c1)OC(C)(C)[C@@H]1CC=C(C(=O)O)C[C@@H]21` [Compound 110, (6aR,10aR)-1-hydroxy-6,6-dimethyl-3-(2-methylpentan-2-yl)-6a,7,10,10a-tetrahydro-6H-benzo[c]chromene-9-carboxylic acid], in the assay with LPS-induced PBMCs, the IL17A is recorded as 1.3 fold change, the IL-1β is given as −1.5 fold change, the IL-4 is −1.3 fold change and the IL-6 was −1.2 fold change. For the same compound, in the assay on LPS-induced PBMCs, the IL-8 is reported as −1.0 fold change, the IL-10 is on record as −1.0 fold change, the MCP-1 is −3.0 fold change and the TNFα is −1.0 fold change. In addition, in the assay on LPS-induced PBMCs (setting [11]), the “IL-12 (p70)” value is recorded as −1.1 fold change and the L-31 is listed as −1.3 fold change. The compound further returned an EC50 on CB1 receptor [7] of over 3000 nM. Also, the EC50 on CB1 receptor [1] (setting [10]) is over 3000 nM. For the same compound, at CB2 receptor [8], the EC50 came to 211 nM and the CB2 fold selectivity was over 14. Moreover, the EC50 at CB2 receptor [2] was 37.4 nM. In addition, on CB1 receptor [5], the Ki is over 3000 nM. The compound also yielded a Ki on CB2 receptor [6] of over 3000 nM.
